Results: patent US11655217B2, “Pyrazole MAGL inhibitors” (H. Lundbeck A/S, priority 2017, dated 2023)

Target: MAGL (Mus musculus (Mouse), UniProt O35678)
Assay: Mouse brain proteomes from inhibitor treated mice (oral gavage, sacrificed 4 h after administration, ABPP analysis)
Details: 5 mg/kg oral gavage
Description: Preparation of Mouse Brain Proteomes from Inhibitor Treated Mice.
Inhibitors were administered to wild-type C57Bl/6J by oral gavage in a vehicle of polyethylene glycol.

Sequence of MAGL (O35678 whole entry): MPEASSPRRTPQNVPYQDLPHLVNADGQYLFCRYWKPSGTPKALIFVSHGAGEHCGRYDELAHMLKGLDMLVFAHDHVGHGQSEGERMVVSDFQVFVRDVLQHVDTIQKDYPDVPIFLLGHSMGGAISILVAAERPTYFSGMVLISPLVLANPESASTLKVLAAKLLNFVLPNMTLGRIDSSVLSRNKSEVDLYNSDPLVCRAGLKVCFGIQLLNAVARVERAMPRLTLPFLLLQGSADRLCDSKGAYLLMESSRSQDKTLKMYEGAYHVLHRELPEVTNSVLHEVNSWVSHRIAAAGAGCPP

| Structure (SMILES) | MAGL % inh. 5 mg/kg (mouse) |
| --- | --- |
| O=C(O)c1nn(C(=O)N2CCC3(CCN(Cc4cccc(Cl)c4C(F)(F)F)C3)CC2)cc1Cl [Example 26, 4-Chloro-1-(2-(3-chloro-2-(trifluoromethyl)benzyl)-2,8-diazaspiro[4.5]decane-8-carbonyl)-1H-pyrazole-3-carboxylic Acid] | D (% inhibition is greater than or equal to 0% and less than 25%) |
| NC(=O)c1ccn(C(=O)N2CC3CN(Cc4ccc(C5(C(=O)O)CCOCC5)cc4C(F)(F)F)CC3C2)n1 (stereo not shown) [Example 35, 4-(4-((5-(3-carbamoyl-1H-pyrazole-1-carbonyl)hexahydropyrrolo[3,4-c]pyrrol-2(1H)-yl)methyl)-3-(trifluoromethyl)phenyl)tetrahydro-2H-pyran-4-carboxylic acid] | D (% inhibition is greater than or equal to 0% and less than 25%) |
| CC(C)c1cccc(O[C@H]2C[C@@H]3CN(C(=O)n4ccc(C(=O)O)n4)C[C@@H]3C2)c1 [Example 220, 1-(trans-5-(3-isopropylphenoxy)ocatahydrocyclo-penta[c]pyrrole-2-carbonyl)-1H-pyrazole-3-carboxylic acid] | C (% inhibition is greater than or equal to 25% and less than 50%) |
| O=C(O)c1ccn(C(=O)N2C[C@H]3C[C@H](Oc4cc(Cl)cc(Cl)c4)C[C@H]3C2)n1 [Example 230, 1-(trans-5-(3,5-dichlorophenoxy)octahydrocyclo-penta[c]pyrrole-2-carbonyl)-1H-pyrazole-3-carboxylic acid] | D (% inhibition is greater than or equal to 0% and less than 25%) |
| O=C(O)c1ccn(C(=O)N2C[C@H]3C[C@H](Oc4cccc(-c5cccnc5)c4)C[C@H]3C2)n1 [Example 241, 1-(trans-5-(3-(pyridin-3-yl)phenoxy)octa-hydrocyclopenta-[c]pyrrole-2-carbonyl)-1H-pyrazole-3-carboxylic acid] | D (% inhibition is greater than or equal to 0% and less than 25%) |
| Cc1cc(-c2ccccc2)ccc1CN1CCN(C(=O)n2ccc(C(=O)O)n2)[C@H](C)C1 [Example 245, (R)-1-(2-methyl-4-((3-methyl-[1,1′-biphenyl]-4-yl)methyl)piperazine-1-carbonyl)-1H-pyrazole-3-carboxylic acid] | D (% inhibition is greater than or equal to 0% and less than 25%) |
| Cc1ccc(Oc2cccc(CN3CCN(C(=O)n4ccc(C(=O)O)n4)CC3)c2)cc1 [Example 251, 1-(4-(3-(p-tolyloxy)benzyl)piperazine-1-carbonyl)-1H-pyrazole-3-carboxylic acid] | D (% inhibition is greater than or equal to 0% and less than 25%) |
| Cc1cn(C(=O)N2C[C@H]3C[C@H](OCc4cc(F)cc(Cl)c4)C[C@H]3C2)nc1C(=O)O [Example 252, 1-(trans-5-((3-chloro-5-fluorobenzyl)oxy)octahydrocyclo-penta[c]pyrrole-2-carbonyl)-4-methyl-1H-pyrazole-3-carboxylic acid] | D (% inhibition is greater than or equal to 0% and less than 25%) |
| C[C@@H]1C[C@H](N(C)Cc2cccc(C(F)(F)F)c2)CCN1C(=O)n1ccc(C(N)=O)n1 [Example 257, 1-((2R,4R)-2-methyl-4-(methyl(3-(trifluoromethyl)benzyl)amino)piperidine-1-carbonyl)-1H-pyrazole-3-carboxamide] | A (% inhibition is greater than or equal to 75%) |
| C[C@@H]1C[C@@H](N(C)Cc2cccc(C(F)(F)F)c2)CCN1C(=O)n1ccc(C(N)=O)n1 [Example 260, 1-((2R,4S)-2-methyl-4-(methyl(3-(trifluoromethyl)benzyl)amino)piperidine-1-carbonyl)-1H-pyrazole-3-carboxamide] | A (% inhibition is greater than or equal to 75%) |
| C[C@@H]1CN(Cc2ccc(-c3ccccc3)cc2Cl)CCN1C(=O)n1ccc(C(=O)O)n1 [Example 291, (R)-1-(4-((3-chloro-[1,1′-biphenyl]-4-yl)methyl)-2-methylpiperazine-1-carbonyl)-1H-pyrazole-3-carboxylic acid] | C (% inhibition is greater than or equal to 25% and less than 50%) |
| O=C(O)c1ccn(C(=O)N2CCC(Oc3ccc(C(F)(F)F)cc3N3CCCC3)CC2)n1 [Example 307, 1-(4-(2-(pyrrolidin-1-yl)-4-(trifluoromethyl)phenoxy)piperidine-1-carbonyl)-1H-pyrazole-3-carboxylic acid] | D (% inhibition is greater than or equal to 0% and less than 25%) |
| O=C(O)c1ccn(C(=O)N2CCC(Oc3cc(N4CCCC4)cc(C(F)(F)F)c3)CC2)n1 [Example 308, 1-(4-(3-(pyrrolidin-1-yl)-5-(trifluoromethyl)phenoxy)piperidine-1-carbonyl)-1H-pyrazole-3-carboxylic acid] | D (% inhibition is greater than or equal to 0% and less than 25%) |
| C[C@H]1CN(Cc2cccc(Oc3ccc(Cl)cc3)c2)CCN1C(=O)n1ccc(C(=O)O)n1 [Example 311, (S)-1-(4-(3-(4-chlorophenoxy)benzyl)-2-methylpiperazine-1-carbonyl)-1H-pyrazole-3-carboxylic acid] | D (% inhibition is greater than or equal to 0% and less than 25%) |
| C[C@@H]1CN(Cc2ccc(C(F)(F)F)cc2N2CCCC2)CCN1C(=O)n1ccc(C(=O)O)n1 [Example 327, (R)-1-(2-methyl-4-(2-(pyrrolidin-1-yl)-4-(trifluoromethyl)benzyl)piperazine-1-carbonyl)-1H-pyrazole-3-carboxylic acid] | D (% inhibition is greater than or equal to 0% and less than 25%) |
| C[C@H]1CN(Cc2ccc(C(F)(F)F)cc2N2CCCC2)CCN1C(=O)n1ccc(C(=O)O)n1 [Example 328, (S)-1-(2-methyl-4-(2-(pyrrolidin-1-yl)-4-(trifluoromethyl)benzyl)piperazine-1-carbonyl)-1H-pyrazole-3-carboxylic acid] | D (% inhibition is greater than or equal to 0% and less than 25%) |
| O=C(O)c1ccn(C(=O)N2CCC3(CCN(Cc4cc(Cl)cc(Cl)c4Cl)C3)CC2)n1 [Example 337, 1-(2-(2,3,5-trichlorobenzyl)-2,8-diazaspiro[4.5]decane-8-carbonyl)-1H-pyrazole-3-carboxylic acid] | D (% inhibition is greater than or equal to 0% and less than 25%) |
| C[C@H]1CN(Cc2cc(F)cc(Oc3ccc(Cl)cc3)c2)CCN1C(=O)n1ccc(C(=O)O)n1 [Example 347, (S)-1-(4-(3-(4-chlorophenoxy)-5-fluorobenzyl)-2-methylpiperazine-1-carbonyl)-1H-pyrazole-3-carboxylic acid] | D (% inhibition is greater than or equal to 0% and less than 25%) |
| C[C@@H]1CC[C@@H](C)N1c1cc(C(F)(F)F)ccc1CN1CCN(C(=O)n2ccc(C(=O)O)n2)CC1 [Example 359, 1-(4-(2-((2R,5R)-2,5-dimethylpyrrolidin-1-yl)-4-(trifluoromethyl)benzyl)piperazine-1-carbonyl)-1H-pyrazole-3-carboxylic acid] | D (% inhibition is greater than or equal to 0% and less than 25%) |
